From ChEMBL document CHEMBL5215010, “Dothideomins A-D, Antibacterial Polycyclic Bisanthraquinones from the Endophytic Fungus Dothideomycetes sp. BMC-101” (2022)
Values after ≈ are worked out from the molar mass of the structure shown.

Key:
Type in all cases: functional
[1] = test system: Staphylococcus epidermidis; assay: Antibacterial activity against Staphylococcus epidermidis assessed as bacterial growth inhibition by CLSI protocol based broth microdilution assay
Staphylococcus aureus = assay: Antibacterial activity against Staphylococcus aureus assessed as bacterial growth inhibition by CLSI protocol based broth microdilution assay
Mycolicibacterium phlei = assay: Antibacterial activity against Mycobacterium phlei assessed as bacterial growth inhibition by CLSI protocol based broth microdilution assay
Bacillus subtilis = assay: Antibacterial activity against Bacillus subtilis assessed as bacterial growth inhibition by CLSI protocol based broth microdilution assay

SMILES | MIC [1] [µg/mL] | MIC (Staphylococcus aureus) [µg/mL] | MIC (Mycolicibacterium phlei) [µg/mL] | MIC (Bacillus subtilis) [µg/mL]
Cc1cc(O)c2c(c1)C(=O)C1=C(C2=O)[C@H]2C(O)=C3C(=O)c4c(O)cc(C)cc4C(=O)[C@@]34CC(=O)C1C4[C@H]2O (stereo not given in full) | 0.4 (≈ 0.781 µM) | 0.4 (≈ 0.781 µM) | 0.4 (≈ 0.781 µM) | 0.4 (≈ 0.781 µM)
Cc1cc(O)c2c(c1)C(=O)[C@]13C[C@H](O)C4C1[C@@H](O)[C@H](C(O)=C3C2=O)[C@@]12O[C@@]41C(=O)c1cc(C)cc(O)c1C2=O (stereo not given in full) | 0.4 (≈ 0.754 µM) | 0.4 (≈ 0.754 µM) | 0.8 (≈ 1.51 µM) | 0.4 (≈ 0.754 µM)
Cc1cc(O)c2c(c1)C(=O)C1=C(C2=O)[C@H]2C(O)=C3C(=O)c4c(O)cc(C)cc4C(=O)[C@@]34C[C@H](O)C1C4[C@H]2O (stereo not given in full) | 1.6 (≈ 3.11 µM) | 1.6 (≈ 3.11 µM) | 1.6 (≈ 3.11 µM) | 1.6 (≈ 3.11 µM)
Cc1cc(O)c2c(c1)C(=O)[C@]13C[C@H](O)C4C1[C@@H](O)[C@H](C(O)=C3C2=O)[C@@]12O[C@@]41C(=O)c1cc(C)cc(O)c1[C@H]2O (stereo not given in full) | 3.3 (≈ 6.2 µM) | 6.5 (≈ 12.2 µM) | 6.5 (≈ 12.2 µM) | 6.5 (≈ 12.2 µM)
O=C(N[C@H](CO)[C@H](O)c1ccc([N+](=O)[O-])cc1)C(Cl)Cl [CHLORAMPHENICOL] | 1.5 (≈ 4.64 µM) | 0.3 (≈ 0.928 µM) | 1.3 (≈ 4.02 µM) | 0.8 (≈ 2.48 µM)
